The source of these data is US9340590B2 (priority 2011, dated 2016).

The target of one experiment is hNav1.5 (Homo sapiens, UniProt Q14524). Description: cell-based. Conditions: IonWorks Quattro, read-out: IWQ Use Nav1.5. On the technique in general: Patch clamp records ionic current or voltage across a cell membrane.
Another experiment concerns the target hNav1.3 (Homo sapiens, UniProt Q9NY46). The experiment is described as follows: cell-based. Conditions: IonWorks Quattro, read-out: IWQ Use Nav1.3.

Read-outs that look alike come from different tables or passages of the source. Positions of bridges follow the written chain, without caps; N, C: chain ends. Non-standard residues stand in square brackets, D forms with d. Residues, ends and D or L forms follow the SMILES beside them. Lys(Me2) = CN(C)CCCC[C@H](N)C(=O)O

hNav1.3, sequence (Q9NY46 whole entry, looked up): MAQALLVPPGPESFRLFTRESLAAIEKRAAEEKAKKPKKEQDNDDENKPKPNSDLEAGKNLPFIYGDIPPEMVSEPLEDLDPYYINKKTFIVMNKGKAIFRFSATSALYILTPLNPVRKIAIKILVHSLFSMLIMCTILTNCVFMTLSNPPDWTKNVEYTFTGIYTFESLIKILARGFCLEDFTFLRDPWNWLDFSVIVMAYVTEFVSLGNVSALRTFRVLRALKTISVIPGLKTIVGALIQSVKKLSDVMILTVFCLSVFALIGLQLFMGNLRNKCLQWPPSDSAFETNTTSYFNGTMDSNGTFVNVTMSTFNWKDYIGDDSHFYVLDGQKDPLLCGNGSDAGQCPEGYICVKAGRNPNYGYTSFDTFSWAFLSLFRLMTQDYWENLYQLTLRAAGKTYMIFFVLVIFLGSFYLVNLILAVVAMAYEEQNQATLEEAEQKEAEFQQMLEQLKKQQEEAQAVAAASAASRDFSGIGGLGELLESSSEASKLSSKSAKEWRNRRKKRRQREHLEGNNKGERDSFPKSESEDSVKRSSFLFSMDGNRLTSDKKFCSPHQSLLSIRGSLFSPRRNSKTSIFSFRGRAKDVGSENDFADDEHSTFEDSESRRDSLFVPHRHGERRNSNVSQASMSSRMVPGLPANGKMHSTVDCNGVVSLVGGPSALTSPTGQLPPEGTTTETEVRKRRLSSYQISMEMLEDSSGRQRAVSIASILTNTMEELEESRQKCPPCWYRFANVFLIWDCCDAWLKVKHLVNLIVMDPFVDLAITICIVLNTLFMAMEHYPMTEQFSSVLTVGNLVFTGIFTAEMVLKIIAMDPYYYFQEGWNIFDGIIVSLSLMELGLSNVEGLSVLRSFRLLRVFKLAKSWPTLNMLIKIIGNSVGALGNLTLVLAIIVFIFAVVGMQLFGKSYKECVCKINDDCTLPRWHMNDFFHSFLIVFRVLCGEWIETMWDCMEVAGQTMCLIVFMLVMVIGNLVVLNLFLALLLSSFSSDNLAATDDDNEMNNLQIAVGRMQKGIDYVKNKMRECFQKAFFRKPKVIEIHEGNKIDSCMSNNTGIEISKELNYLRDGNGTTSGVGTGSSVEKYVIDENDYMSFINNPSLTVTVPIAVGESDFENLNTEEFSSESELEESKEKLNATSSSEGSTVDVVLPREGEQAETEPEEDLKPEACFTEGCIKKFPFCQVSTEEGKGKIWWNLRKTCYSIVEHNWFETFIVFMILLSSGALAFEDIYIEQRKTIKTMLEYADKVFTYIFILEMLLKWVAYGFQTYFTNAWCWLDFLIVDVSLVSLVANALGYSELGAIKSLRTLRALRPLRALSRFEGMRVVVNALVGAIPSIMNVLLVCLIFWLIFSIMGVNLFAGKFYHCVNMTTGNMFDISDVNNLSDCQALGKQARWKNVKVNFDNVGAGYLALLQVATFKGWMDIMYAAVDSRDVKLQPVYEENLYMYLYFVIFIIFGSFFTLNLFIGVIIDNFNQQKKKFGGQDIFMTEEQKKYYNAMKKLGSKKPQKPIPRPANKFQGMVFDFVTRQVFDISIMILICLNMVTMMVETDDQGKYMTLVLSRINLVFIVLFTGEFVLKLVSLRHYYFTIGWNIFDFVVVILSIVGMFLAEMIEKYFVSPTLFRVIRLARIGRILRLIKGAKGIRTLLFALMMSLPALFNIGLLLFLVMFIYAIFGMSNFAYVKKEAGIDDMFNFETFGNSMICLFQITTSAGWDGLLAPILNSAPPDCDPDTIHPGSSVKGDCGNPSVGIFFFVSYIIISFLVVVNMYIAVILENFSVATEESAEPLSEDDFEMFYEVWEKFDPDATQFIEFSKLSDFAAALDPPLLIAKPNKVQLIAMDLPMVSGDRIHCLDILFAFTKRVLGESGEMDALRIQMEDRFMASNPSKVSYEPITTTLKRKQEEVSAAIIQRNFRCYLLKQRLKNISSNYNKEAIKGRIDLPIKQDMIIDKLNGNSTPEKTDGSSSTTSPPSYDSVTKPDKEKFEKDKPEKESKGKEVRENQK
hNav1.5, sequence (Q14524 whole entry, looked up): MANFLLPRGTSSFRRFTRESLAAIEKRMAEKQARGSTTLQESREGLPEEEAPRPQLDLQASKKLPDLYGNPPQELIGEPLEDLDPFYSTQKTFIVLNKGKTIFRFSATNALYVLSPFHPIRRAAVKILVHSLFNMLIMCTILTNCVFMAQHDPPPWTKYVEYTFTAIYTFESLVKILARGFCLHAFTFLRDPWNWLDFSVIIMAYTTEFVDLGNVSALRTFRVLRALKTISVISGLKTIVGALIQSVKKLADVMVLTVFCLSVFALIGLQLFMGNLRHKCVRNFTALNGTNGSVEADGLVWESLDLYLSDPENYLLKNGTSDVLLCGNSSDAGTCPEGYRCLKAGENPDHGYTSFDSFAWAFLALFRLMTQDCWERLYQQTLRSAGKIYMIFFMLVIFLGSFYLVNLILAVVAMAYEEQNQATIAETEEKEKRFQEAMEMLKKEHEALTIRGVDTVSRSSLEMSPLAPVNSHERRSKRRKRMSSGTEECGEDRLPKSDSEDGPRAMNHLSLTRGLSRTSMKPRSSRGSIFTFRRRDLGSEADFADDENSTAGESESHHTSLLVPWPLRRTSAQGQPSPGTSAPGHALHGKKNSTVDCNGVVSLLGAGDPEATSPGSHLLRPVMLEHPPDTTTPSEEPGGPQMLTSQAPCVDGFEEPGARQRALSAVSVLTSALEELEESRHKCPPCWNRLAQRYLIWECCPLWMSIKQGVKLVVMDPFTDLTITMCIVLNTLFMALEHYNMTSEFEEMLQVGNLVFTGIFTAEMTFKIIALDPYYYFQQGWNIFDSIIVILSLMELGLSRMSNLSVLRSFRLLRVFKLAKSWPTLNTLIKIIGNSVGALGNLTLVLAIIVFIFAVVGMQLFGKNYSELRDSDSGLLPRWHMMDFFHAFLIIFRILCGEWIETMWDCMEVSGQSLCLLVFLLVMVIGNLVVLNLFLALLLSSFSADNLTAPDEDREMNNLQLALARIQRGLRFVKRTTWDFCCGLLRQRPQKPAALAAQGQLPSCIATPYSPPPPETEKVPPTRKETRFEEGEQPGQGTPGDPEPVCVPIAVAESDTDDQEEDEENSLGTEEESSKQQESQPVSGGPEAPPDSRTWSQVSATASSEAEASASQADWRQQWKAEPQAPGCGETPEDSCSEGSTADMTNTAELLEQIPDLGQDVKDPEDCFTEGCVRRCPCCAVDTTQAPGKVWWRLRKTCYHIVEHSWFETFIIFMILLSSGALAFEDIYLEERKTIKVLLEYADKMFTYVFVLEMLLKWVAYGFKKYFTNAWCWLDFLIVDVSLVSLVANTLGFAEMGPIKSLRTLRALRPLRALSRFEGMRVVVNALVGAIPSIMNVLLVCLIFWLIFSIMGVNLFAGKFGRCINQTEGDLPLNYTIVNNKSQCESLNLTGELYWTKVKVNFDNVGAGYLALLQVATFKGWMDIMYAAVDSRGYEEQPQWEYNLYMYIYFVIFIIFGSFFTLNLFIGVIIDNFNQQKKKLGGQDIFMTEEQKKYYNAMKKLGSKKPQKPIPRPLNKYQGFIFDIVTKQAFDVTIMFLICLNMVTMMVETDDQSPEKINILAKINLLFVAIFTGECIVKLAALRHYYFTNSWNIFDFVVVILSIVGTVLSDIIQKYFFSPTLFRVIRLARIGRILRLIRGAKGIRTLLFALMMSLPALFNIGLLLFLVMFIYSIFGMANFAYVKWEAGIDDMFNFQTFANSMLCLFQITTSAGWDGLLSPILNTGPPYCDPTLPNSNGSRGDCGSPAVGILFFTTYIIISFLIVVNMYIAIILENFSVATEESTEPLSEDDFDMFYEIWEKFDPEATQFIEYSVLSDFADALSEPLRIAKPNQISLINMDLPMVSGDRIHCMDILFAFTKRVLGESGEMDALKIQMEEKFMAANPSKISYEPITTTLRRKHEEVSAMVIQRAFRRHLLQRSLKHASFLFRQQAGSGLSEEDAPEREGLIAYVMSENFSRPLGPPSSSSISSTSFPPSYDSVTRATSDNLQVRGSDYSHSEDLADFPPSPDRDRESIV

In the case of `CC[C@H](C)[C@@H]1NC(=O)[C@@H]2CSSC[C@@H]3NC(=O)[C@H](C(C)C)NC(=O)[C@H](CC(C)C)NC(=O)[C@H](CC(N)=O)NC(=O)[C@@H]4CCCN4C(=O)[C@H](CCCNC(=N)N)NC(=O)[C@H](CSSC[C@H](NC(=O)[C@@H](N)CC(=O)O)C(=O)N[C@@H](CC(C)C)C(=O)NCC(=O)N[C@@H](Cc4ccccc4)C(=O)N[C@@H](CCSC)C(=O)N[C@@H](CCCNC(=N)N)C(=O)N[C@@H](CCCCN)C(=O)N2)NC(=O)[C@H](CSSC[C@@H](C(=O)N[C@@H](CCCCN)C(=O)N[C@@H](Cc2ccc(O)cc2)C(=O)N[C@@H](CCC(=O)O)C(=O)N[C@@H](Cc2ccccc2)C(N)=O)NC(=O)[C@H](Cc2c[nH]c4ccccc24)NC(=O)[C@H](CCCCN)NC(=O)[C@H](Cc2cnc[nH]2)NC(=O)[C@H]([C@@H](C)O)NC(=O)[C@H](CCCNC(=N)N)NC(=O)[C@H](CO)NC3=O)NC(=O)[C@H](CCCCN)NC(=O)[C@H](CC(=O)O)NC(=O)[C@H](CC(N)=O)NC(=O)[C@H](CC(=O)O)NC(=O)[C@@H]2CCCN2C1=O` [SEQ ID NO: 33, [Glu33]GpTx-1] (H-DCLGFMRKCIPDNDKCCRPNLVCSRTHKWCKYEF-NH2; disulfide 2-17, 9-23, 16-30), the IC50 on hNav1.5 (Table 26, use, […]) came out at 11.5 µM; on hNav1.3 (Table 26, use, […]), 0.39 µM.
For the molecule `CC[C@H](C)[C@@H]1NC(=O)[C@@H]2CSSC[C@@H]3NC(=O)[C@H](C(C)C)NC(=O)[C@H](CC(C)C)NC(=O)[C@H](CC(N)=O)NC(=O)[C@@H]4CCCN4C(=O)[C@H](CCC(=O)O)NC(=O)[C@H](CSSC[C@H](NC(=O)[C@@H](N)CC(=O)O)C(=O)N[C@@H](CC(C)C)C(=O)NCC(=O)N[C@@H](Cc4ccccc4)C(=O)N[C@@H](CCSC)C(=O)N[C@@H](CCCNC(=N)N)C(=O)N[C@@H](CCCCN)C(=O)N2)NC(=O)[C@H](CSSC[C@@H](C(=O)N[C@@H](CCCCN)C(=O)N[C@@H](Cc2ccc(O)cc2)C(=O)N[C@H](C(=O)N[C@@H](Cc2ccccc2)C(N)=O)C(C)C)NC(=O)[C@H](Cc2c[nH]c4ccccc24)NC(=O)[C@H](CCCCN)NC(=O)[C@H](Cc2cnc[nH]2)NC(=O)[C@H]([C@@H](C)O)NC(=O)[C@H](CCCNC(=N)N)NC(=O)[C@H](CO)NC3=O)NC(=O)[C@H](CCCCN)NC(=O)[C@H](CC(=O)O)NC(=O)[C@H](CC(N)=O)NC(=O)[C@H](CC(=O)O)NC(=O)[C@@H]2CCCN2C1=O` [compound 148] (H-DCLGFMRKCIPDNDKCCEPNLVCSRTHKWCKYVF-NH2; disulfide 2-17, 9-23, 16-30), the IC50 at hNav1.5 (Use) amounted to 14.6 µM; at hNav1.3 (Use) it was 0.21 µM.
For the molecule `CC[C@H](C)[C@@H]1NC(=O)[C@@H]2CSSC[C@@H]3NC(=O)[C@H](C(C)C)NC(=O)[C@H](CC(C)C)NC(=O)[C@H](CC(N)=O)NC(=O)[C@@H]4CCCN4C(=O)[C@H](CCCNC(=N)N)NC(=O)[C@H](CSSC[C@H](NC(=O)[C@@H](N)CC(=O)O)C(=O)N[C@@H](CC(C)C)C(=O)NCC(=O)N[C@@H](Cc4ccccc4)C(=O)N[C@@H](CCSC)C(=O)N[C@@H](CCCNC(=N)N)C(=O)N[C@@H](CCCCN)C(=O)N2)NC(=O)[C@H](CSSC[C@@H](C(=O)N[C@@H](CCCCN)C(=O)N[C@@H](Cc2ccc(O)cc2)C(=O)N[C@H](C(=O)N[C@@H](Cc2ccccc2)C(N)=O)C(C)C)NC(=O)[C@H](Cc2c[nH]c4ccccc24)NC(=O)[C@H](CCCCN)NC(=O)[C@H](Cc2cnc[nH]2)NC(=O)[C@H]([C@@H](C)O)NC(=O)[C@H](CCCNC(=N)N)NC(=O)[C@H](CO)NC3=O)NC(=O)[C@H](CCCCN)NC(=O)[C@H](CC(=O)O)NC(=O)[C@H](CC(N)=O)NC(=O)[C@H](CCCNC(=N)N)NC(=O)[C@@H]2CCCN2C1=O` [compound 67] (H-DCLGFMRKCIPRNDKCCRPNLVCSRTHKWCKYVF-NH2; disulfide 2-17, 9-23, 16-30), the IC50 came out at 5 µM on hNav1.5 (Use) and 0.14 µM on hNav1.3 (Use).
On to `CC[C@H](C)[C@@H]1NC(=O)[C@@H]2CSSC[C@@H]3NC(=O)[C@H](CCC(=O)O)NC(=O)[C@H](CC(C)C)NC(=O)[C@H](CC(N)=O)NC(=O)[C@@H]4CCCN4C(=O)[C@H](CCCNC(=N)N)NC(=O)[C@H](CSSC[C@H](NC(=O)[C@@H](N)CC(=O)O)C(=O)N[C@@H](CC(C)C)C(=O)NCC(=O)N[C@@H](Cc4ccccc4)C(=O)N[C@@H](CCSC)C(=O)N[C@@H](CCCNC(=N)N)C(=O)N[C@@H](CCCCN)C(=O)N2)NC(=O)[C@H](CSSC[C@@H](C(=O)N[C@@H](CCCCN)C(=O)N[C@@H](Cc2ccc(O)cc2)C(=O)N[C@H](C(=O)N[C@@H](Cc2ccccc2)C(N)=O)C(C)C)NC(=O)[C@H](Cc2c[nH]c4ccccc24)NC(=O)[C@H](CCCCN)NC(=O)[C@H](Cc2cnc[nH]2)NC(=O)[C@H]([C@@H](C)O)NC(=O)[C@H](CCCNC(=N)N)NC(=O)[C@H](CO)NC3=O)NC(=O)[C@H](CCCCN)NC(=O)[C@H](CC(=O)O)NC(=O)[C@H](CC(N)=O)NC(=O)[C@H](CC(=O)O)NC(=O)[C@@H]2CCCN2C1=O` [compound 102] (H-DCLGFMRKCIPDNDKCCRPNLECSRTHKWCKYVF-NH2; disulfide 2-17, 9-23, 16-30), for which the IC50 on hNav1.5 (Use) stood at 20.8 µM; on hNav1.3 (Use), 2.14 µM.
For `CC[C@H](C)[C@@H]1NC(=O)[C@@H]2CSSC[C@@H]3NC(=O)[C@H](C(C)C)NC(=O)[C@H](CC(C)C)NC(=O)[C@H](CC(N)=O)NC(=O)[C@@H]4CCCN4C(=O)[C@H](CCCCN(C)C)NC(=O)[C@H](CSSC[C@H](NC(=O)[C@@H](N)CC(=O)O)C(=O)N[C@@H](CC(C)C)C(=O)NCC(=O)N[C@@H](Cc4ccccc4)C(=O)N[C@@H](CCSC)C(=O)N[C@@H](CCCNC(=N)N)C(=O)N[C@@H](CCCCN)C(=O)N2)NC(=O)[C@H](CSSC[C@@H](C(=O)N[C@@H](CCCCN)C(=O)N[C@@H](Cc2ccc(O)cc2)C(=O)N[C@H](C(=O)N[C@@H](Cc2ccccc2)C(N)=O)C(C)C)NC(=O)[C@H](Cc2c[nH]c4ccccc24)NC(=O)[C@H](CCCCN)NC(=O)[C@H](Cc2cnc[nH]2)NC(=O)[C@H]([C@@H](C)O)NC(=O)[C@H](CCCNC(=N)N)NC(=O)[C@H](CO)NC3=O)NC(=O)[C@H](CCCCN)NC(=O)[C@H](CC(=O)O)NC(=O)[C@H](CC(N)=O)NC(=O)[C@H](CC(=O)O)NC(=O)[C@@H]2CCCN2C1=O` [compound 314] (H-DCLGFMRKCIPDNDKCC[Lys(Me2)]PNLVCSRTHKWCKYVF-NH2; disulfide 2-17, 9-23, 16-30), the figures for the IC50 at hNav1.5 (Use) and on hNav1.3 (Use) were 6.55 µM and 0.08 µM, respectively.
